Measurements reported in US20230203060A1 (GENFLEET THERAPEUTICS (SHANGHAI) INC., priority 2020, published 2023).

Target: T1, KRAS G12C (Homo sapiens, UniProt P01116, G12C)
T1 construct: purchased Reactionbiology
Assay: KRAS G12C NEA-HTRF experiment (SOS1-catalyzed displacement of GDP by GTP)
Type: biochemical
Method in brief: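 His-tagged KRAS G12C preloaded with DY647-GDP was preincubated 15 min at 20 °C with compound, then exchanged with SOS1 (0.2 μM working solution) and GTP (200 μM working solution) for 2 h at 20 °C in the dark. HTRF 665/615 nm ratio with anti-His-Tb was normalised to T0 and no-compound controls; IC50 by four-parameter fit.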

T1 sequence (P01116 1-188 isoform P01116-2 G12C): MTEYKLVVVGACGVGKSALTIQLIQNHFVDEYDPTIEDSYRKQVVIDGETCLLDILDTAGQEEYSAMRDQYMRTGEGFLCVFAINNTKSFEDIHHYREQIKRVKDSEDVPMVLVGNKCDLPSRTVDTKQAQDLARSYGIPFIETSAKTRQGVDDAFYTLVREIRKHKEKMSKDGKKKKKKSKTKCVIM

Structure (SMILES)	IC50
C=CC(=O)N1CCN2C(=O)c3c(N4CCN(CCOC)C(C)(C)C4)nc(-c4c(O)cccc4F)c(Cl)c3OC[C@H]2C1 [Z321, (6aR)-8-acryloyl-4-chloro-3-(2-fluoro-6-hydroxyphenyl)-1-(4-(2-methoxyethyl)-3,3-dimethylpiperazin-1-yl)-6,6a,7,8,9,10-hexahydro-12H-pyrazino[2,1-c]pyrido[3,4-f][1,4]oxazepin-12-one]	0.078 µM
C=CC(=O)N1CCN2C(=O)c3c(N4C[C@H](OC)CC4(C)C)nc(-c4c(O)cccc4F)c(Cl)c3OC[C@H]2C1 (single isomer, unassigned) [Z244-2]	0.005 µM
C=CC(=O)N1CCN2C(=O)c3c(N4CCN(C(=O)CC)C[C@@H]4C)nc(-c4c(O)cccc4F)c(Cl)c3OC[C@H]2C1 [Z316-1, (6aR)-8-acryloyl-4-chloro-3-(2-fluoro-6-hydroxyphenyl)-1-((S)-2-methyl-4-propionylpiperazin-1-yl)-6,6a,7,8,9,10-hexahydro-12H-pyrazino[2,1-c]pyrido[3,4-f][1,4]oxazepin-12-one]	0.009 µM
C=CC(=O)N1CCN2C(=O)c3c(N4CC(O)CC4(C)C)nc(-c4c(O)cccc4F)c(C)c3OC[C@H]2C1 (single isomer, unassigned) [Z336-2]	0.027 µM
C=CC(=O)N1CCN2C(=O)c3c(N4C[C@H](N(C)C)C[C@@H]4C)nc(-c4c(O)cccc4F)c(Cl)c3OC[C@H]2C1 [Z237-1, (6aR)-8-acryloyl-4-chloro-1-((2S,4R)-4-(dimethylamino)-2-methylpyrrolidin-1-yl)-3-(2-fluoro-6-hydroxyphenyl)-6,6a,7,8,9,10-hexahydro-12H-pyrazino[2,1-c]pyrido[3,4-f][1,4]oxazepin-12-one]	0.122 µM
C=CC(=O)N1CCN2C(=O)c3c(N4CC[C@@H](N(C)C)C4(C)C)nc(-c4c(O)cccc4F)c(Cl)c3OC[C@H]2C1 (single isomer, unassigned) [Z360-1]	0.0981 µM
C=CC(=O)N1CCN2C(=O)c3c(N4C[C@](C)(O)CC4(C)C)nc(-c4c(O)cccc4F)c(Cl)c3OC[C@H]2C1 (single isomer, unassigned) [Z243-2]	0.076 µM
C=CC(=O)N1CCN2C(=O)c3c(N4C[C@@H](OC)C[C@@H]4C)nc(-c4c(O)cccc4F)c(F)c3OC[C@H]2C1 [Z359-1, (6aR)-8-actyloyl-4-fluoro-3-(2-fluoro-6-hydroxyphenyl)-1-((2S,4S)-4-methoxy-2-methylpyrrolidin-1-yl)-6,6a,7,8,9,10-hexahydro-12H-pyrazino[2,1-c]pyrido[3,4-f][1,4]oxazepin-12-one]	0.0838 µM
C=CC(=O)N1CCN2C(=O)c3c(N4C[C@@H](O)CC4(C)C)nc(-c4c(O)cccc4F)c(F)c3OC[C@H]2C1 (single isomer, unassigned) [Z256-1]	0.026 µM
C=CC(=O)N1CCN2C(=O)c3c(N4CCN(CCOC)C[C@@H]4C)nc(-c4c(O)cccc4F)c(Cl)c3OC[C@H]2C1 [Z257a, (6aR)-8-acryloyl-4-chloro-3-(2-fluoro-6-hydroxyphenyl)-1-((S)-4-(2-methoxyethyl)-2-methylpiperazin-1-yl)-6,6a,7,8,9,10-hexahydro-12H-pyrazino[2,1-c]pyrido[3,4-f][1,4]oxazepin-12-one]	0.076 µM
C=CC(=O)N1CCN2C(=O)c3c(N4CC(=O)N(CC)C[C@@H]4C)nc(-c4c(O)cccc4F)c(Cl)c3OC[C@H]2C1 [Z319-1, (6aR)-8-acryloyl-4-chloro-1-((S)-4-ethyl-2-methyl-5-oxopiperazin-1-yl)-3-(2-fluoro-6-hydroxyphenyl)-6,6a,7,8,9,10-hexahydro-12H-pyrazino[2,1-c]pyrido[3,4-f][1,4]oxazepin-12-one]	0.009 µM
C=CC(=O)N1CCN2C(=O)c3c(N4CC(C#N)CC4(C)C)nc(-c4c(O)cccc4F)c(Cl)c3OC[C@H]2C1 (stereo partly drawn) [Z275, (6aR)-8-acryloyl-1-(4-cyano-2,2-dimethylpyrrolidin-1-yl)-4-chloro-3-(2-fluoro-6-hydroxyphenyl)-6,6a,7,8,9,10-hexahydro-12H-pyrazino[2,1-c]pyrido[3,4-f][1,4]oxazepin-12-one]	0.021 µM
C=CC(=O)N1CCN2C(=O)c3c(N4CCN(C)C(=O)[C@@H]4C)nc(-c4c(O)cccc4F)c(Cl)c3OC[C@H]2C1 [Z311-1, (6aR)-8-actyloyl-4-chloro-1-((S)-2,4-dimethyl-3-oxopiperazin-1-yl)-3-(2-fluoro-6-hydroxyphenyl)-6,6a,7,8,9,10-hexahydro-12H-pyrazino[2,1-c]pyrido[3,4-f][1,4]oxazepin-12-one]	0.034 µM
C=CC(=O)N1CCN2C(=O)c3c(N4CCC(N(C)C)C4(C)C)nc(-c4c(O)cccc4F)c(Cl)c3OC[C@H]2C1 (stereo partly drawn) [Z334, (6aR)-8-acryloyl-4-chloro-1-(3-(dimethylamino)-2,2-dimethylpyrrolidin-1-yl)-3-(2-fluoro-6-hydroxyphenyl)-6,6a,7,8,9,10-hexahydro-12H-pyrazino[2,1-c]pyrido[3,4-f][1,4]oxazepin-12-one]	0.079 µM
C=CC(=O)N1CCN2C(=O)c3c(N4C[C@H](O)CC4(C)C)nc(-c4ccccc4F)c(Cl)c3OC[C@H]2C1 (single isomer, unassigned) [Z325-2]	0.035 µM
C=CC(=O)N1CCN2C(=O)c3c(N4CCN(C)C[C@@H]4C)nc(-c4c(F)ccc(Cl)c4O)c(Cl)c3OC[C@H]2C1 [Z342, (6aR)-8-acryloyl-4-chloro-3-(3-chloro-6-fluoro-2-hydroxyphenyl)-1-((S)-2,4-dimethylpiperazin-1-yl)-6,6a,7,8,9,10-hexahydro-12H-pyrazino[2,1-c]pyrido[3,4-f][1,4]oxazepin-12-one]	0.074 µM
C=CC(=O)N1CCN2C(=O)c3c(N4C[C@H](OC)CC4(C)C)nc(-c4c(O)cccc4F)c(F)c3OC[C@H]2C1 (single isomer, unassigned) [Z256a-2]	0.018 µM
C=CC(=O)N1CCN2C(=O)c3c(N4CC(C)(O)CC4(C)C)nc(-c4c(O)cccc4F)c(Cl)c3OC[C@H]2C1 (stereo partly drawn) [Z243, (6aR)-8-acryloyl-4-chloro-3-(2-fluoro-6-hydroxyphenyl)-1-(4-hydroxy-2,2,4-trimethylpyrrolidin-1-yl)-6,6a,7,8,9,10-hexahydro-12H-pyrazino[2,1-c]pyrido[3,4-f][1,4]oxazepin-12-one]	0.023 µM
C=CC(=O)N1CCN2C(=O)c3c(N4CCO[C@](C)(COC)C4)nc(-c4c(O)cccc4F)c(Cl)c3OC[C@H]2C1 (single isomer, unassigned) [Z332-1]	0.13 µM
C=CC(=O)N1CCN2C(=O)c3c(N4CCO[C@](C)(CO)C4)nc(-c4c(O)cccc4F)c(Cl)c3OC[C@H]2C1 (single isomer, unassigned) [Z333-1]	0.191 µM
C=CC(=O)N1CCN2C(=O)c3c(N4CCN(CC)C(C)(C)C4)nc(-c4c(O)cccc4F)c(Cl)c3OC[C@H]2C1 [Z322, (6aR)-8-actyloyl-4-chloro-3-(2-fluoro-6-hydroxyphenyl)-1-(4-ethyl-3,3-dimethylpiperazin-1-yl)-6,6a,7,8,9,10-hexahydro-12H-pyrazino[2,1-c]pyrido[3,4-f][1,4]oxazepin-12-one]	0.062 µM
C=CC(=O)N1CCN2C(=O)c3c(N4C[C@@](C)(O)CC4(C)C)nc(-c4c(O)cccc4F)c(F)c3OC[C@H]2C1 (single isomer, unassigned) [Z256b-1]	0.033 µM
C=CC(=O)N1CCN2C(=O)c3c(N4C[C@@H](OC)CC4(C)C)nc(-c4c(O)cccc4F)c(F)c3OC[C@H]2C1 (single isomer, unassigned) [Z256a-1]	0.041 µM
